Measurements: ChEMBL document CHEMBL1201862, “PubChem BioAssay data set” (2004)
Active and inactive are the calls of the source.

Assays:
[1] = molecular target: T1, fMet-Leu-Phe receptor (Homo sapiens, UniProt P21462); experiment: formyl peptide receptor binders – dose response (AID 519); assay type: functional
T1 sequence (P21462 whole entry): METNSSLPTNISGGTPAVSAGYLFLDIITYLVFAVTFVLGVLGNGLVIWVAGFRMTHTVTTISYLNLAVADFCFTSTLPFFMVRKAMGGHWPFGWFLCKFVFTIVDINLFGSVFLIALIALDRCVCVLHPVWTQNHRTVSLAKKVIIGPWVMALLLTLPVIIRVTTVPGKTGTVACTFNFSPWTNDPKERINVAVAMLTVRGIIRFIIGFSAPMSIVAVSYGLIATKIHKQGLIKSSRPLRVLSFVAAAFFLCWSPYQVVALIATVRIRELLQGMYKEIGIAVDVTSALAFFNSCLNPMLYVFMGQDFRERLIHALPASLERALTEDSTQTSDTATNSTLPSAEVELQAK

[2] = molecular target: Prothrombin (Homo sapiens, UniProt P00734); experiment: Thrombin 1536 HTS Dose Response Confirmation. [Related pubchem assays: 1046 (Thrombin 1536 HTS; hits were confirmed in this assay)]; assay type: functional
[3] = system: HEK293; experiment: cells; assay type: functional, cell-based; conditions: Homo sapiens
[4] = molecular target: T2, Nuclear receptor subfamily 0 group B member 1 (Homo sapiens, UniProt P51843); experiment: Luminescence-based cell-based high throughput dose response assay for inhibitors of the orphan nuclear receptor subfamily 0, group B, member 1 (DAX1; NR0B1). [Related pubchem assays (depositor defined):AID504766, AID504790]; assay type: functional
T2 sequence (P51843 whole entry): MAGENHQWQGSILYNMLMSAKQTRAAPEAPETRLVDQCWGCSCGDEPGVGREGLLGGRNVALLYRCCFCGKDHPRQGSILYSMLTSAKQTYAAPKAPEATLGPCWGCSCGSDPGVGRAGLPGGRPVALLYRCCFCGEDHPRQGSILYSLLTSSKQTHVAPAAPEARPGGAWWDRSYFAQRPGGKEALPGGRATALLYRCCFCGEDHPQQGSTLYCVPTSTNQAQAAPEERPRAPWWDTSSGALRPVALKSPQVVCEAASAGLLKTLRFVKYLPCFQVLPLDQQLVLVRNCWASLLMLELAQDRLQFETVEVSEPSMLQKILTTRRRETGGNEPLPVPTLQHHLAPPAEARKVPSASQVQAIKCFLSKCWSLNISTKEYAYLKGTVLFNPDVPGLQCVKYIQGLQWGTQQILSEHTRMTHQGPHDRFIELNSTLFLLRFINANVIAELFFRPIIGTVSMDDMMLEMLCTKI

[5] = alpha-synuclein stem-loop luciferase translation blockers – H4 neuroglioma cells, luminescence, confirmation (AID 1988); assay type: functional, cell-based
[6] = HEK-293T viability loss after treatment – luminescence, T-cell screen hits, cytotoxicity control for TCR NF-kB inhibitor project, dose response (AID 489026); assay type: functional, cell-based;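 also: cells exposed to compound about 14 hours before the viability readout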
[7] = DRD fibroblast viability loss – cell-based, non-viral oncogenic, luminescence, dose response (AID 1934); assay type: functional; conditions: Homo sapiens
[8] = luciferase reporter signal suppression in cells – H4 neuroglioma cells, luminescence, dose response (AID 1990); assay type: functional, cell-based
[9] = system: BJ; experiment: cells; assay type: functional, cell-based; conditions: Homo sapiens
[10] = Luminescence Cell-Based Dose Response HTS to Identify Inhibitors of 5'UTR Stem-Loop Driven Prion Protein mRNA Translation in H4 Neuroglioblastoma Cells. [Related pubchem assays: 1827 (Project Summary), 1813 (Primary HTS)]; assay type: functional
[11] = system: BJ; experiment: BJ-TERT-LT-ST fibroblast viability loss – cell-based, RAS-independent, luminescence, dose response (AID 1935); assay type: functional; conditions: Homo sapiens;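 also: BJ fibroblasts immortalized with TERT plus LT and ST oncogenes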
[12] = system: BJ; experiment: BJ-TERT fibroblast viability loss – cell-based, RAS-independent, luminescence, dose response (AID 1933); assay type: functional; conditions: Homo sapiens
[13] = molecular target: T3, Short transient receptor potential channel 4 (Mus musculus, UniProt Q9QUQ5); experiment: calcium entry via TRPC4 opening agents – cell-based, HEK293 TRPC4/mu-opioid, Fluo-4 calcium, dose response (AID 434937); assay type: functional
T3 sequence (Q9QUQ5 whole entry): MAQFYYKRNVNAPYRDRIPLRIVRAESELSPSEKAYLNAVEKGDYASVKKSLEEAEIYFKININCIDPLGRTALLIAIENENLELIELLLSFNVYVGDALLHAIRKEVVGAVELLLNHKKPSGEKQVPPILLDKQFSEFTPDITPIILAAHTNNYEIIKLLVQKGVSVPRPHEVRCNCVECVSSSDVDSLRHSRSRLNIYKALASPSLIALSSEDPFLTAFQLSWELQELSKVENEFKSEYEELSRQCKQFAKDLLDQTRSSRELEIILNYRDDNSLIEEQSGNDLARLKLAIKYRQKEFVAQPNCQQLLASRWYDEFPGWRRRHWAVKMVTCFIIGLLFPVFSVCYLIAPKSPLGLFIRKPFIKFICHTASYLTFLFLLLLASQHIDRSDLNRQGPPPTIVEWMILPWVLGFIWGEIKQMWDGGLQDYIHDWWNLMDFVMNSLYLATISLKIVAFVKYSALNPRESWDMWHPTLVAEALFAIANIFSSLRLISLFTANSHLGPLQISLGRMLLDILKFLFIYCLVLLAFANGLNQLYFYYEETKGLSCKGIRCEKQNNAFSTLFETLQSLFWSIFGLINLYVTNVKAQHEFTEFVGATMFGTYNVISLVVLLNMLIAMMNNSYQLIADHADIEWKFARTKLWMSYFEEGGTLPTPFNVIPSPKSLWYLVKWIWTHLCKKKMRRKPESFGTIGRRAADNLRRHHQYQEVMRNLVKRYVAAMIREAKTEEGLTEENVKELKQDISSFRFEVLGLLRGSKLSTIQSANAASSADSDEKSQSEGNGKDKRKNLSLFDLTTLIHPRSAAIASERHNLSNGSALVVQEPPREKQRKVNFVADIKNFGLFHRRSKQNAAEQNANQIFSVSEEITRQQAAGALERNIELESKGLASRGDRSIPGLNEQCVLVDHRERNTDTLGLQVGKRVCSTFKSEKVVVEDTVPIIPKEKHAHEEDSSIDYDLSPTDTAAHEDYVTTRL

[14] = system: Vero; experiment: cells; assay type: functional; conditions: Chlorocebus sabaeus
[15] = OVCAR-3 cell viability loss – plate reader, dry powder samples, PAX8 inhibitor project, dose response (AID 743044); assay type: functional, cell-based
[16] = OVCAR8 cell viability loss – plate reader, dry powder samples, PAX8 project, dose response (AID 743197); assay type: functional, cell-based; conditions: OVCAR-8
[17] = molecular target: Paired box protein Pax-8 (Homo sapiens, UniProt Q06710); experiment: PAX8 transcriptional activity inhibition in RMG-I – RMG-I cells, luciferase, cherry-pick, dose response (AID 687027); assay type: functional, cell-based;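 also: luciferase reporter driven by Pax8 target thyroperoxidase promoter measured by SteadyGlo luminescence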
[18] = molecular target: Cytochrome P450 3A4 (Homo sapiens, UniProt P08684); conditions: Potency;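 also: confirmatory qHTS run detecting inhibitors and substrates of CYP3A4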
[19] = molecular target: G-protein coupled receptor 55 (Homo sapiens, UniProt Q9Y2T6); experiment: inhibition of LPI-stimulated GPR55 beta-arrestin translocation – imaging, U2OS, beta-arrestin-GFP, LPI agonist, primary screen (AID 2013); assay type: functional;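 also: antagonist potency measured as reduced agonist-driven arrestin aggregation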
[20] = Luminescence Cell-Based Dose Retest to Confirm Inhibitors of Cancer Stem Cells. [Related pubchem assays (depositor defined):AID2717, AID2721]; assay type: functional; conditions: Homo sapiens
[21] = molecular target: T4, Fatty acid synthase (Homo sapiens, UniProt P49327); experiment: inhibition of human FAS-TE enzyme activity – biochemical, kinetic fluorescence intensity, dose response (AID 624326); assay type: functional;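 also: rate of fluorescence rise from hydrolysis of a fluorogenic O-methyl fluorescein ester substrate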
[22] = molecular target: T4, Fatty acid synthase; experiment: inhibition of human FAS-TE enzyme activity – biochemical, endpoint fluorescence intensity, uHTS hits, dose response (AID 624327); assay type: functional;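 also: fluorescence from hydrolysis of an O-methyl fluorescein acyl ester substrate by the enzyme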
[23] = molecular target: Nonstructural protein 1 (Influenza A virus, UniProt Q194T2); assay type: functional, Influenza A virus (A/California/07/2009(H1N1))
[24] = molecular target: Induced myeloid leukemia cell differentiation protein Mcl-1 (Homo sapiens, UniProt Q07820); assay type: functional
Induced myeloid leukemia cell differentiation protein Mcl-1, sequence (Q07820 whole entry): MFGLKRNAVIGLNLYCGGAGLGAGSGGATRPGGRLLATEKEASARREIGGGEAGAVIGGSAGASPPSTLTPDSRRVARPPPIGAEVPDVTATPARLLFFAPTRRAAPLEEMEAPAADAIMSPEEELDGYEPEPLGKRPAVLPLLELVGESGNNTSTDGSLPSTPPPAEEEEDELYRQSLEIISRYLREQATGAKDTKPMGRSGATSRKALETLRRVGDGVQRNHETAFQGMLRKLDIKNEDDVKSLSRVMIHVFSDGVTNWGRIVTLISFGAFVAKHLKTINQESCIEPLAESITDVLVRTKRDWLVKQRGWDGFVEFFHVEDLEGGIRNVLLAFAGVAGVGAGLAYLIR

T4 sequence (P49327 whole entry): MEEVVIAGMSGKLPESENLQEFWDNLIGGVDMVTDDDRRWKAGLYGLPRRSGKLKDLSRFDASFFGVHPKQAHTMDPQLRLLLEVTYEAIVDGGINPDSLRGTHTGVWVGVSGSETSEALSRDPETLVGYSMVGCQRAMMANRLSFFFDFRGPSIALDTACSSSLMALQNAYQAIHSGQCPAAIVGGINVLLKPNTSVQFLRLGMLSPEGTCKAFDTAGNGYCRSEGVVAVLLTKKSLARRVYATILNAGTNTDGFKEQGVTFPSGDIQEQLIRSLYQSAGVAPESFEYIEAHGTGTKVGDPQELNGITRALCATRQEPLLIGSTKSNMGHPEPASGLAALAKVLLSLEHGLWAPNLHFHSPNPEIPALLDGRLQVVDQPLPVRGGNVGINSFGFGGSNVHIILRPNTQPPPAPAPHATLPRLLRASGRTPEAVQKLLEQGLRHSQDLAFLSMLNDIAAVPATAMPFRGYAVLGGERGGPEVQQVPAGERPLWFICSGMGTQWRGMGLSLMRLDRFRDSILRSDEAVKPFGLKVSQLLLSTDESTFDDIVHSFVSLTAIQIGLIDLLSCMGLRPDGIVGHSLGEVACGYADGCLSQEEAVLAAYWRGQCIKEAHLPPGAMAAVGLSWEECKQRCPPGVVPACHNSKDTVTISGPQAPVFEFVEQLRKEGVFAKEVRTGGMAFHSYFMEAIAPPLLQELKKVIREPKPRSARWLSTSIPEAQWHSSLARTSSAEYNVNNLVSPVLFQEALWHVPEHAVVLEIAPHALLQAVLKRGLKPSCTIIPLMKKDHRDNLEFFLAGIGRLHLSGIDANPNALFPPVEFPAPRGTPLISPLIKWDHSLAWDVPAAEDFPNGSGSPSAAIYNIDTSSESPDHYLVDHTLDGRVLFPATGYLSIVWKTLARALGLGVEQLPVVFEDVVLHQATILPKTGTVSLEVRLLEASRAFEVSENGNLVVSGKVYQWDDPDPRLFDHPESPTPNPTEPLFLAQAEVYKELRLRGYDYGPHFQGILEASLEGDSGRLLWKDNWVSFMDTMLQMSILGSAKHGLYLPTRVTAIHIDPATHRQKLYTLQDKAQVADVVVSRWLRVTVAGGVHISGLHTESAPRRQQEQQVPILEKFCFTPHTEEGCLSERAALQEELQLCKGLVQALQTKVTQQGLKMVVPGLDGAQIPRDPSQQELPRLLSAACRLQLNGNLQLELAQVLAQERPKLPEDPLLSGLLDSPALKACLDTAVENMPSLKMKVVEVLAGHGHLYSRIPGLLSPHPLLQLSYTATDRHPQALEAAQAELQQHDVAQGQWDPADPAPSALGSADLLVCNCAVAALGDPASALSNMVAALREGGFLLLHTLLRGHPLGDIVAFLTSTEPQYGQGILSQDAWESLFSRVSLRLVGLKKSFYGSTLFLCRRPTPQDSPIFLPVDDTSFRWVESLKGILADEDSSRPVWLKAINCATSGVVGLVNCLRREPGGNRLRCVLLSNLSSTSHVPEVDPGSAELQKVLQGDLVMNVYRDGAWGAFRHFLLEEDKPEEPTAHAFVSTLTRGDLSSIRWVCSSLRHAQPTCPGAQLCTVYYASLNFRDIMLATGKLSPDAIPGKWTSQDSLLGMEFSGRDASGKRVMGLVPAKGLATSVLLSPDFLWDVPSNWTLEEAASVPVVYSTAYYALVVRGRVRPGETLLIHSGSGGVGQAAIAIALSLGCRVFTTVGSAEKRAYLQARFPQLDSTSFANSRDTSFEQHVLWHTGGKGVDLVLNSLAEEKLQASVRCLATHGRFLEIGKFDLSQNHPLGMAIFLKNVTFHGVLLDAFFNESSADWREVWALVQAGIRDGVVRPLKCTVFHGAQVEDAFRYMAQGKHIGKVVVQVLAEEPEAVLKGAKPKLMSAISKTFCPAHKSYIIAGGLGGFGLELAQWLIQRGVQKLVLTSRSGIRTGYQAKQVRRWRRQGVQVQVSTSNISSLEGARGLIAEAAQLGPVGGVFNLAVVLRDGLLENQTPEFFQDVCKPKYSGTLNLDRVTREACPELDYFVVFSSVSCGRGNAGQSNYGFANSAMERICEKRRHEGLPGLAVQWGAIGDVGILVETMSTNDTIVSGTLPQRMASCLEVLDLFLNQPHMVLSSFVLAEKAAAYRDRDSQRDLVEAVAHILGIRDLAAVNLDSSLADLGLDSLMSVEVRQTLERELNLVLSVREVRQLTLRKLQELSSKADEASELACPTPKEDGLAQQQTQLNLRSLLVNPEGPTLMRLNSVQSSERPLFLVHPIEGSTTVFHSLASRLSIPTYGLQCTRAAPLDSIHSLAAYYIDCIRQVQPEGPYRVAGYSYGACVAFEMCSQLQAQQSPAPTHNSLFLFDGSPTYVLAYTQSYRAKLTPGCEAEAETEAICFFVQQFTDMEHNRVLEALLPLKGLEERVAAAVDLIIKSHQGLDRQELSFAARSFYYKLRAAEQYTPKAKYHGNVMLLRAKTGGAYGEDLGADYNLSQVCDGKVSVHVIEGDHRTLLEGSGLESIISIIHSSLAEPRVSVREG
Paired box protein Pax-8, sequence (Q06710 whole entry): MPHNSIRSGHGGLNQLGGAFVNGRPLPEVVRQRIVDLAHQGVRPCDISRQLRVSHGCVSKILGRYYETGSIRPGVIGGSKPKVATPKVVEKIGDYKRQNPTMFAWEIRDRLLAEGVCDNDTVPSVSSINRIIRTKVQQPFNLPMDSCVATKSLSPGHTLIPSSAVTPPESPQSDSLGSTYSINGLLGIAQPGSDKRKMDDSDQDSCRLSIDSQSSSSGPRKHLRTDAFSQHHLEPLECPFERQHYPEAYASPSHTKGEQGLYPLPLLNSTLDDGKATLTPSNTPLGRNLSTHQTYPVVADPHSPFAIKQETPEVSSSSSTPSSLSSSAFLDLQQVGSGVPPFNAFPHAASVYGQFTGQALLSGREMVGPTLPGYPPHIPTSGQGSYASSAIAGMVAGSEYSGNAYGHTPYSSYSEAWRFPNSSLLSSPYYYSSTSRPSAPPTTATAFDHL
G-protein coupled receptor 55, sequence (Q9Y2T6 whole entry): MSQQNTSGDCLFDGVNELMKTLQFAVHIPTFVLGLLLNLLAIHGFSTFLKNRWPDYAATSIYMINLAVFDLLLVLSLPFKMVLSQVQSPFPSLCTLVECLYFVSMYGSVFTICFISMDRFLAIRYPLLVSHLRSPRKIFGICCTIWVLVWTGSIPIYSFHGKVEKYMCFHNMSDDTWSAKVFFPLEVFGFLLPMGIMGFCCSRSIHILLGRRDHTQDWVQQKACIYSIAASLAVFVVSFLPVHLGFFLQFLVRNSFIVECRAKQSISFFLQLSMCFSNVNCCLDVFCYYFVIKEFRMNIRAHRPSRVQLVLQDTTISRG
Cytochrome P450 3A4, sequence (P08684 whole entry): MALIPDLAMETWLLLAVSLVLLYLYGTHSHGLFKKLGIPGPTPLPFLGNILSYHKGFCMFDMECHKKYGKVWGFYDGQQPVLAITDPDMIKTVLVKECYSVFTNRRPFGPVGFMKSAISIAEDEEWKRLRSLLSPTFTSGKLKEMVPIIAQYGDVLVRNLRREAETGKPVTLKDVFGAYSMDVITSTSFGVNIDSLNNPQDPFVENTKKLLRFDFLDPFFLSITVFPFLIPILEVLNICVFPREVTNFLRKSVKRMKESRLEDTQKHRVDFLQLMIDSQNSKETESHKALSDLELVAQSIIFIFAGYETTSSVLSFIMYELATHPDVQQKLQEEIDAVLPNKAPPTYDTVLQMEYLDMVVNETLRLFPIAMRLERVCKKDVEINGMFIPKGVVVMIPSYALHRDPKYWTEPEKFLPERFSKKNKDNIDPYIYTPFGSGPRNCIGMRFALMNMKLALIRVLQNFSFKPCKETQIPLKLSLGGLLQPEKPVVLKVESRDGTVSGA
Nonstructural protein 1, sequence (Q194T2 whole entry): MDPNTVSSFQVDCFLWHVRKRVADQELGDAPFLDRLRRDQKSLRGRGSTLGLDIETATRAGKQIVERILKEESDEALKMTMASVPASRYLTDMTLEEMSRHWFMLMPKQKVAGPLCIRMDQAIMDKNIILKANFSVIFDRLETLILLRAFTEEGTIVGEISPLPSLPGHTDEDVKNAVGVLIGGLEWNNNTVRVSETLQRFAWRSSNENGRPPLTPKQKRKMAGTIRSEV

For O=C(C1=C(O)C(=O)N(CCCN2CCOCC2)C1c1ccccn1)c1cc2ccccc2o1 (configuration not stated), the Ki [1] was 60.7 µM (inactive).

For CC(=O)n1nc(-c2ccc(Cl)cc2)nc1NCc1ccco1, the IC50 [2] was 1.44 µM (active).

In the case of COc1ccc(-c2[nH]ncc2CN2CCN(Cc3cccs3)CC2)cc1F, the IC50 [3] is reported as > 67.5 µM (inactive) and the IC50 [4] is reported as > 67.5 µM (inactive).

In the case of Oc1cc(-c2ccccc2)nc2cc(Cl)ccc12, the EC50 [5] is reported as 0.209 µM (active), the IC50 [6] is reported as > 80 µM (inactive) and the EC50 [7] is reported as 0.906 µM (inconclusive). For the same compound, the EC50 [8] was 2.42 µM (inconclusive), the EC50 [9] was 19.8 µM (active) and the EC50 [10] was 2.36 µM (active). For the same compound, the EC50 [11] was 1.42 µM (inconclusive) and the EC50 [12] was 1.04 µM (active).

With O=[N+]([O-])c1ccc(N2CCCNCC2)c2ncccc12 the EC50 [13] was 0.008 µM (active).

For COc1ccc(/C=C2/CSC/C(=C/c3ccc(OC)c(OC)c3)C2=O)cc1OC, the CC50 [14] was 8.1 µM (active).

In the case of COc1ccc(C(CNC(=O)c2cccc(S(=O)(=O)NCc3ccccc3)c2)N(C)C)cc1 (configuration not stated), the EC50 [13] is reported as 0.421 µM (active).

In the case of COc1ccccc1C(=O)NCc1nnc(SCC(=O)Nc2nccs2)n1C, the IC50 [3] is reported as > 67.6 µM (inactive) and the IC50 [4] is reported as > 67.6 µM (inactive).

In the case of COC(=O)[C@H](C(C)C)n1c(C)c(C(C)=O)c(C(C)=O)c1C, the Ki [1] is reported as > 66.7 µM (inactive).

With Cc1ccc(S(=O)(=O)Nc2ccc3c(c2)C(=O)N([C@@H](C)CO)C[C@@H](C)[C@H](CN(C)Cc2ccc(C(F)(F)F)cc2)OCCCC[C@H](C)O3)cc1 the AC50 [15] was 4.07 µM (active), the AC50 [16] was > 70 µM (inactive) and the AC50 [17] was 6.38 µM (active).

For COc1ccc(-c2ccc3c(c2)[C@@H]2[C@@H](CCN2S(=O)(=O)c2ccc(OC)cc2)[C@@H](CO)N3C)cc1, the AC50 [15] was 31.2 µM (active), the AC50 [16] was 51.2 µM (active) and the AC50 [17] was 12.3 µM (active).

In the case of CCN(CC)c1ccc2c(C)cc(=O)oc2c1, the AC50 [18] is reported as 20 µM (inconclusive).

With COc1cc(/C=N/NC(=O)c2cc(C34CC5CC(CC(C5)C3)C4)[nH]n2)ccc1O the IC50 [19] was 2.69 µM (active) and the AC50 [20] was 0.699 µM (active).

In the case of Cc1cc(-c2ccccc2)nc(N/N=C/c2ccc([N+](=O)[O-])cc2)n1, the IC50 [21] is reported as 6.41 µM (active), the IC50 [22] is reported as 8.37 µM (active) and the IC50 [23] is reported as > 100 µM (active).

For COc1cc(/C=N/Nc2n[nH]c3c4ccccc4nc-3n2)ccc1O, the IC50 [24] was 3.9 µM (active).

For Cc1csc2c(N3CCN(C(=O)NC(C)(C)C)CC3)ncnc12, the EC50 [13] was 5.31 µM (active).
